Like-named read-outs stand apart in the source and are kept apart here.
Assays:
NaV 1.7 channel = NaV 1.7 channel (Homo sapiens, UniProt Q15858); test: NaV inhibition, optical membrane potential assay (analogous mode); type: cell-based; details: activity against NaV 1.7 channel
Experimental: (§1) Compounds of the invention are useful as antagonists of voltage-gated sodium ion channels. Antagonist properties of test compounds were assessed as follows. Cells expressing the NaV of interest were placed into microtiter plates. After an incubation period, the cells were stained with fluorescent dyes sensitive to the transmembrane potential. The test compounds were added to the microtiter plate. The cells were stimulated with either a chemical or electrical means to evoke a NaV dependent membrane potential change from unblocked channels, which was detected and measured with trans-membrane potential-sensitive dyes. Antagonists were detected as a decreased membrane potential response to the stimulus. The optical membrane potential assay utilized voltage-sensitive FRET sensors described by Gonzalez and Tsien (See Gonzalez, J. E. and R. Y. Tsien (1995) “Voltage sensing by fluorescence resonance energy transfer in single cells” Biophys J 69(4): 1272-80, and Gonzalez, J. E. and R. Y. Tsien (1997) “Improved indicators of cell membrane potential that use fluorescence resonance energy transfer” Chem Biol 4(4): 269-77) in combination with instrumentation for measuring fluorescence changes such as the Voltage/Ion Probe Reader (VIPR®) (See Gonzalez, J. E., K. Oades, et al. (1999) “Cell-based assays and instrumentation for screening ion-channel targets” Drug Discov Today 4(9): 431-439).
(§2) C) VIPR® Optical Membrane Potential Assay Method with Electrical Stimulation
(§3) The following is an example of how NaV1.3 inhibition activity is measured using the optical membrane potential method#2. Other subtypes are performed in an analogous mode in a cell line expressing the NaV of interest.
(§4) The electrical stimulation instrument and methods of use are described in ION Channel Assay Methods PCT/US01/21652, herein incorporated by reference. The instrument comprises a microtiter plate handler, an optical system for exciting the coumarin dye while simultaneously recording the coumarin and oxonol emissions, a waveform generator, a current- or voltage-controlled amplifier, and a device for inserting electrodes in well. Under integrated computer control, this instrument passes user-programmed electrical stimulus protocols to cells within the wells of the microtiter plate.
(§5) Assay Protocol • 1. Insert or use electrodes into each well to be assayed. • 2. Use the current-controlled amplifier to deliver stimulation wave pulses for 3 s. Two seconds of pre-stimulus recording are performed to obtain the un-stimulated intensities. Five seconds of post-stimulation recording are performed to examine the relaxation to the resting state.
(§6) Data are analyzed and reported as normalized ratios of background-subtracted emission intensities measured in the 460 nm and 580 nm channels. Background intensities are then subtracted from each assay channel. Background intensities are obtained by measuring the emission intensities during the same time periods from identically treated assay wells in which there are no cells. The response as a function of time is then reported as the ratios obtained using the following formula: […]
(§7) The data is further reduced by calculating the initial (Ri) and final (Rf) ratios. These are the average ratio values during part or all of the pre-stimulation period, and during sample points during the stimulation period. The response to the stimulus ρ=Rf/Ri is then calculated.
(§8) Control responses are obtained by performing assays in the presence of a compound with the desired properties (positive control) and in the absence of pharmacological agents (negative control). Responses to the negative (N) and positive (P) controls are calculated as above. The activity A of the assay well relative to positive and negative controls is defined as: […]

NaV1.8 [1] = target: T1, NaV1.8 (Homo sapiens, UniProt Q9Y5Y9); test: as above; type: cell-based; details: activity against NaV 1.8 channel
Experimental: as §1, §2, §3, §4, §5, §6, §7, §8
Target sequence in this assay (Q9Y5Y9 whole entry): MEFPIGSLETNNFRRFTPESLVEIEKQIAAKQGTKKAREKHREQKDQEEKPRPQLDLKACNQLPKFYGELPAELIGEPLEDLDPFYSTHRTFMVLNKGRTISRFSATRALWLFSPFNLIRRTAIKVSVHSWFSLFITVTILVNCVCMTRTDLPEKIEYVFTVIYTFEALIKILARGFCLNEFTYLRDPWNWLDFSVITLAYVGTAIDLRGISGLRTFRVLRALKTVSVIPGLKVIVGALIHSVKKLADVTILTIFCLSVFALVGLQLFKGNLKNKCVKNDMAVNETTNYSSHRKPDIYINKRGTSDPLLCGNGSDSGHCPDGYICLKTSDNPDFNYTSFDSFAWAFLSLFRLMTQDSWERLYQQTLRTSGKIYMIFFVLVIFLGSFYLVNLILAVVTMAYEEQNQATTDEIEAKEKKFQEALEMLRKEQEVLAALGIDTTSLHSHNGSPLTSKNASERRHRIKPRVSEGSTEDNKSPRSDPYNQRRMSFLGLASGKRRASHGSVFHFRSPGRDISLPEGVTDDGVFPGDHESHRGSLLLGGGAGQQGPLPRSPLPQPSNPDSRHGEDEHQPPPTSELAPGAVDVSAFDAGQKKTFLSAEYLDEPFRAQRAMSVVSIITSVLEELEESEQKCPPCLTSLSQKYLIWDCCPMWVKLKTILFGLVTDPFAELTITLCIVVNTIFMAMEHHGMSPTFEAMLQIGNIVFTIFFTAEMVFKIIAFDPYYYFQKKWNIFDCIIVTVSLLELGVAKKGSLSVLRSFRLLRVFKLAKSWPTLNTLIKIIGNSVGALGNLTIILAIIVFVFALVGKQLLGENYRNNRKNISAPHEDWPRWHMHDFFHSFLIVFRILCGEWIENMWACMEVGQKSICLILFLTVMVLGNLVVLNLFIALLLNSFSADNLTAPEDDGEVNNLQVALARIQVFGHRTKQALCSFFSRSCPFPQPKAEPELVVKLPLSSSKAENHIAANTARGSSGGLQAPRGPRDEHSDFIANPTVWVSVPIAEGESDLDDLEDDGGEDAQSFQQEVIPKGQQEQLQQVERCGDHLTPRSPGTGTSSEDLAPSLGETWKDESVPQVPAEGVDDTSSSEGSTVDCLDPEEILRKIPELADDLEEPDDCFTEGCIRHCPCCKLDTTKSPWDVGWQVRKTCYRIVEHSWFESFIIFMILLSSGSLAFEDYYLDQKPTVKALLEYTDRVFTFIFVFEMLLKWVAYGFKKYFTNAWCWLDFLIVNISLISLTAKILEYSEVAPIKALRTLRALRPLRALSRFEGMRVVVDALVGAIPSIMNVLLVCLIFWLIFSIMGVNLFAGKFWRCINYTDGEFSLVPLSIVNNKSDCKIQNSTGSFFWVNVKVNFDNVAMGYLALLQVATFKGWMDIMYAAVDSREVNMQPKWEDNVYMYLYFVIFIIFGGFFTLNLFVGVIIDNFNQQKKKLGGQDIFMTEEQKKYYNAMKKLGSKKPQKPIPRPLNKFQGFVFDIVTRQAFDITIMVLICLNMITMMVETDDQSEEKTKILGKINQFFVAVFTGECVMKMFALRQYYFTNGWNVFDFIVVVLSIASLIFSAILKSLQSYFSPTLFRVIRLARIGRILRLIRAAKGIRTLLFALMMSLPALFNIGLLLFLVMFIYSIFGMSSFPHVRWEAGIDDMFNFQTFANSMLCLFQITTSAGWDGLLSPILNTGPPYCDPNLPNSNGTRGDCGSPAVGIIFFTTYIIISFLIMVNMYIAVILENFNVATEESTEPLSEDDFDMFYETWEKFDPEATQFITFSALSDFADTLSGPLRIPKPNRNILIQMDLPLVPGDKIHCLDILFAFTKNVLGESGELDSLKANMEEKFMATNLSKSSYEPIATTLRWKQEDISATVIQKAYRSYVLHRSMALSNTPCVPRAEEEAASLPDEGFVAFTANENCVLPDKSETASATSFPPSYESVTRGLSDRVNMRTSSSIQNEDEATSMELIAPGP

NaV1.3 [2] = target: T2, NaV1.3 (Homo sapiens, UniProt Q9NY46); test: NaV inhibition, VIPR optical membrane potential assay with electrical stimulation; type: cell-based; design: expressed in transfected cells; host or cells: HEK293; details: activity against NaV 1.3 channel
Experimental: as §1, §2, §3
Target sequence in this assay (Q9NY46 whole entry): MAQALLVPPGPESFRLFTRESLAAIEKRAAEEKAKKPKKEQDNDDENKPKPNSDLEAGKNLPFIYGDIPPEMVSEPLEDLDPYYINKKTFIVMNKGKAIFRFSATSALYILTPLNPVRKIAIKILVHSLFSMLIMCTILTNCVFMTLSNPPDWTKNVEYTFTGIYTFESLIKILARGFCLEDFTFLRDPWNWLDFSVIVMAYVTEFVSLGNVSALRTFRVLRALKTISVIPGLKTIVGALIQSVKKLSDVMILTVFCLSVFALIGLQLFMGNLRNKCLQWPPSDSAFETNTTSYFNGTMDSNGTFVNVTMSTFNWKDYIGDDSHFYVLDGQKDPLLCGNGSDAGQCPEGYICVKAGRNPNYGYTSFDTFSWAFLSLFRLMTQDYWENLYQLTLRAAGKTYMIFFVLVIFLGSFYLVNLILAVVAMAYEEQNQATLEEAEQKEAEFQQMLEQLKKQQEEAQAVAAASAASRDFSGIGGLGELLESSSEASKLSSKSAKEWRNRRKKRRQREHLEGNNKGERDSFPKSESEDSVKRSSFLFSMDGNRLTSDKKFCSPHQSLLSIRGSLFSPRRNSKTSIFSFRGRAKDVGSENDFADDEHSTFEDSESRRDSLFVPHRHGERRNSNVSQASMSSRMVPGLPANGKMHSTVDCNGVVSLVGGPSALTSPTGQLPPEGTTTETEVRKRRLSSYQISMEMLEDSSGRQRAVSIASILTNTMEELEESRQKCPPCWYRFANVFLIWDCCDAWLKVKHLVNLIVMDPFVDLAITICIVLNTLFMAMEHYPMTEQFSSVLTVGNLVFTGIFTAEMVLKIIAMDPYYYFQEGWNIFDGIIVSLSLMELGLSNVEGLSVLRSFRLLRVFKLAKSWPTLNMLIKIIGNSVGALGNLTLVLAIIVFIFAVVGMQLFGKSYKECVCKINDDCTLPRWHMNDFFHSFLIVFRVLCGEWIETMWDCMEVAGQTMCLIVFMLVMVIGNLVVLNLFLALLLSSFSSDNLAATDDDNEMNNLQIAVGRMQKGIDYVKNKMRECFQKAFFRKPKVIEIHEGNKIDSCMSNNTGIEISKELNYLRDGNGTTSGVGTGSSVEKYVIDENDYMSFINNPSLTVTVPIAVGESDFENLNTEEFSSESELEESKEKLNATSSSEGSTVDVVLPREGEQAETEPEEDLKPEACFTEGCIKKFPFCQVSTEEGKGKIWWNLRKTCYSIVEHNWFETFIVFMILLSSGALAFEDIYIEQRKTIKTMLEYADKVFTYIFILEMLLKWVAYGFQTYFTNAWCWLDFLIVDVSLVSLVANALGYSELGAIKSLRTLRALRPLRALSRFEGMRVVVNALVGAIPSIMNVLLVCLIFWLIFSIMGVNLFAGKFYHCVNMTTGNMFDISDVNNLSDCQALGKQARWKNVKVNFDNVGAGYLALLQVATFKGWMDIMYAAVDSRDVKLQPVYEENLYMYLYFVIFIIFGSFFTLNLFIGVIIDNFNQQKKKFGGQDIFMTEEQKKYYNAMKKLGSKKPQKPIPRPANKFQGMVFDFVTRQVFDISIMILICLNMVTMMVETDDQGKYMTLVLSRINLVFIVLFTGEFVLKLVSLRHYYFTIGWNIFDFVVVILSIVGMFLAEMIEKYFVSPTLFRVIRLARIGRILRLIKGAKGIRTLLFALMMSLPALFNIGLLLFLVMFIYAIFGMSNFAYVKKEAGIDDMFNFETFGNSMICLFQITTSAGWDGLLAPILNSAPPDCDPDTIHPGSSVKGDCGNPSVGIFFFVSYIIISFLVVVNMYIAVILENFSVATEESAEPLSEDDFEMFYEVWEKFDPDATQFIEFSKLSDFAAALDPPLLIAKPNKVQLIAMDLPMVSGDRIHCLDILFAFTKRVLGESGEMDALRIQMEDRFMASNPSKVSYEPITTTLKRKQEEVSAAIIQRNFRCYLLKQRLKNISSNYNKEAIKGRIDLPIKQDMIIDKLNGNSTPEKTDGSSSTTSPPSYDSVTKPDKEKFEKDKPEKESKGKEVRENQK
HEK293 cells stably expressing NaV 1.3 are plated into 96-well microtiter plates. After an appropriate incubation period, the cells are stained with the voltage sensitive dyes CC2-DMPE/DiSBAC2(3) as follows.
10 mM CC2-DMPE is vortexed with an equivalent volume of 10% pluronic, followed by vortexing in required amount of HBSS containing 10 mM HEPES. Each cell plate will require 5 mL of 2×CC2-DMPE. 50 μL of 2×CC2-DMPE is to wells containing washed cells, resulting in a 10 μM final staining concentration. The cells are stained for 30 minutes in the dark at RT.
The 2×DiSBAC2(3) solution can be used to solvate compound plates. Note that compound plates are made at 2× drug concentration. Wash stained plate again, leaving residual volume of 50 μL. Add 50 uL/well of the 2×DiSBAC2(3) w/ABSC1. Stain for 30 minutes in the dark at RT.
as §4, §5, §6

NaV1.3 [3] = target: T2, NaV1.3; details: read-out: TTX IC50; cited from earlier work
Target sequence in this assay (Q9NY46 whole entry, looked up): as the sequence (Q9NY46 whole entry) above

NaV1.6 = NaV1.6 (Homo sapiens, UniProt Q9UQD0); details: read-out: TTX IC50; cited from earlier work
NaV1.8 [4] = target: T1, NaV1.8; details: read-out: TTX IC50; cited from earlier work
Target sequence in this assay (Q9Y5Y9 whole entry, looked up): as the sequence (Q9Y5Y9 whole entry) above

NaV1.9 = NaV1.9 (Homo sapiens, UniProt Q9UI33); details: read-out: TTX IC50; cited from earlier work

SMILES | IC50 (NaV 1.7 channel) [µM] | IC50 (NaV1.8 [1]) [µM] | IC50 (NaV1.3 [2]) [µM] | IC50 (NaV1.3 [3]) [µM] | IC50 (NaV1.6) [µM] | IC50 (NaV1.8 [4]) [µM] | IC50 (NaV1.9) [µM]
Cc1ncccc1Oc1cc(C(C)(C)C)ccc1C(=O)Nc1cncc(S(N)(=O)=O)c1 [Compound 1] | > 20 | < 2 | > 20 | – | – | – | –
CC(C)(C)c1ccc(C(=O)Nc2cncc(S(N)(=O)=O)c2)c(Oc2ccc(F)cc2Cl)c1 [Compound 2] | 2 to 10 | < 2 | 2 to 10 | – | – | – | –
CC(C)(C)c1ccc(C(=O)Nc2cncc(S(N)(=O)=O)c2)c(Oc2ccc(C(F)(F)F)nc2)c1 [Compound 3] | 2 to 10 | < 2 | 10 to 20 | – | – | – | –
CC(C)(C)c1ccc(C(=O)Nc2cncc(S(N)(=O)=O)c2)c(Oc2cccc(C(F)(F)F)n2)c1 [Compound 4] | > 20 | < 2 | 10 to 20 | – | – | – | –
NS(=O)(=O)c1cncc(NC(=O)c2ccc(C(F)(F)F)cc2Oc2ccc(C(F)(F)F)nc2)c1 [Compound 5, N-(5-Sulfamoylpyridin-3-yl)-4-(trifluoromethyl)-2-(6-(trifluoromethyl)pyridin-3-yloxy)benzamide] | > 20 | 2 to 10 | > 20 | – | – | – | –
CC(C)(C)c1ccc(C(=O)Nc2cncc(S(C)(=O)=O)c2)c(Oc2ccc(C(F)(F)F)nc2)c1 [Compound 6, 4-tert-Butyl-N-(5-(methylsulfonyl)pyridin-3-yl)-2-(6-(trifluoromethyl)pyridin-3-yloxy)benzamide] | > 20 | 2 to 10 | 10 to 20 | – | – | – | –
CC(C)(C)c1ccc(C(=O)Nc2cncc(S(C)(=O)=O)c2)c(Oc2ccc(F)cc2Cl)c1 [Compound 7] | 10 to 20 | < 2 | 10 to 20 | – | – | – | –
CS(=O)(=O)c1cncc(NC(=O)c2ccc(C(F)(F)F)cc2Oc2ccc(C(F)(F)F)nc2)c1 [Compound 8] | > 20 | 2 to 10 | > 20 | – | – | – | –
CC(C)(C)c1ccc(C(=O)Nc2cncc(S(C)(=O)=O)c2)c(Oc2cccc(C(F)(F)F)n2)c1 [Compound 9] | 10 to 20 | 2 to 10 | 10 to 20 | – | – | – | –
NC1=N[C@H](O)[C@H]2[C@H]3O[C@]4(O)O[C@@H]([C@@H](O)[C@@]2(N1)[C@@H]4O)[C@]3(O)CO [TTX, tetrodotoxin] | – | – | – | 0.015 | 0.006 | > 50 | 1

Source: patent US8865771B2, “Amides useful as inhibitors of voltage-gated sodium channels” (Vertex Pharmaceuticals Incorporated, priority 2007, dated 2014)
